Values quoted from earlier work as cited in patent US20240293347A1, “COMPOSITION AND METHODS OF TREATMENT USING TRANSDERMAL HORMONE SUPPLEMENTATION” (Xygenyx Inc., priority 2023, published 2024).

Assays:
[1] = in the human body
[2] = used as penetration enhancer for transdermal drugs

Row | Compound | biological half-life [1] | increase of drug uptake via the transdermal route (factor) [2]
1 | HGH: hormone comprising a peptide chain that is synthesized in the pituitary gland | 10-20 minutes | –
2 | CC(C)[C@@H]1CC[C@@H](C)C[C@H]1O [Menthol] | – | ≥ 10
3 | CC12CCC(CC1)C(C)(C)O2 [eucalyptol, 1,8-epoxy-p-menthane] | – | more than 10
